Experimental data from article PMC5713474, “Green route to synthesis of valuable chemical 6-hydroxynicotine from nicotine in tobacco wastes using genetically engineered Agrobacterium tumefaciens S33” (Biotechnology for Biofuels, 2017).

Test system: T1, Hno (6-hydroxynicotine oxidase), recombinant His-tagged
T1 construct: N-terminal His tag (pETDuet-1), E. coli BL21 (DE3); FAD-containing; about 50 kDa on SDS-PAGE
Test: UV-visible spectrophotometry at […] nm (6-hydroxypseudooxynicotine formation)
Assay type: biochemical, Agrobacterium tumefaciens
Settings: 37 °C, pH 9.2, 100 mM glycine-NaOH buffer; O2 as electron acceptor; read-out: apparent K m

Work on CN1CCC[C@H]1c1ccc(O)nc1 [6-hydroxynicotine] yielded a Km of 67 ± 1 µM.
